Measurements: paper PMC6256925, “The Anti-HIV Actions of 7- and 10-Substituted Camptothecins” (Molecules, 2009)
Converted amounts (≈) assume the structure as drawn. “Also recorded” adds a separate entry of the source. Read-outs that look alike come from different tables or passages of the source.

Legend:
[1] = set-up: method as in PMID 12775425; conditions: cited from earlier work
HIV-1IIIB = assay: Syncytia assay (CPE inhibition), HIV-1IIIB in C8166 cells; format: cell-based
Procedure: (§1) In the presence of 100 μL of various concentrations of the tested compound, C8166 cells (4 × 10^5cells/mL) were infected with virus (HIV-1IIIB, HIV-2CBL-20 or HIV-2ROD) at a multiplicity of infection (M.O.I.) of 0.06. The final volume per well was 200 μL. Control assays were performed without the testing compounds in HIV-1 IIIB infected and uninfected cultures. AZT was included as positive control. After three days of culture, the cytopathic effect (CPE) was measured by counting the number of syncytia in each well under an inverted microscope. EC50 was then calculated.

HIV-2CBL-20 = assay: Syncytia assay (CPE inhibition), HIV-2CBL-20 in C8166 cells; format: cell-based
Procedure: as §1

HIV-2ROD = assay: Syncytia assay (CPE inhibition), HIV-2ROD in C8166 cells; format: cell-based
Procedure: as §1

HIV-1KM018 = assay: Inhibition of HIV-1 p24 antigen production in PBMC; format: cell-based
Procedure: Adequate numbers of PHA activated normal PBMC were incubated with HIV-1KM018 (M.O.I. = 0.03) in presence of varying concentrations of the compound. After 3 h of virus adsorption, the cells were washed twice with PBS and incubated with or without various concentration of compound in culture medium supplemented with 50 U/mL human recombinant IL-2 at 1.2 × 10^6 cells/mL for seven days. Half of the medium was changed with corresponding compound concentrations on the third day. At seven days post-infection, HIV-1 p24 antigen in cell-free culture supernatants was analyzed by ELSIA. The percent inhibition of HIV-1 p24 antigen production in PBMC was calculated.

[2] = MTT-based cytotoxicity assay, C8166; format: cell-based; conditions: human
Procedure: (§2) Cellular toxicity of compounds 1–3 was assessed by the MTT method, as described previously. Briefly, cells were seeded on a microtiter plate in the absence or presence of various concentrations of compounds in triplicate and incubated at 37 °C in a humid atmosphere of 5% CO2 for three days. Twenty microliters of MTT reagent (5 mg/mL in PBS) was added to each well, then incubated at 37 °C for 4 h. One hundred microliters of 50% DMF-20% SDS was then added. After the formazan was dissolved completely, the plates were read on a Bio-Tek ELx 800 ELISA reader at 595 nm/630 nm. The results were shown as absorbance values, and the CC50 was calculated.

[3] = MTT-based cytotoxicity assay, PBMC; format: cell-based; conditions: human
Procedure: (§3) Cell lines (C8166, H9, H9/HIV-1IIIB, Jurkat, Jurkat/HIV-1IIIB) were maintained in RPMI-1640 supplemented with 10% heat-inactivated newborn calf serum (Gibco, Auckland, New Zealand). The cells used in all experiments were in log-phase growth. PBMC from healthy donors were isolated by Ficoll-Hypaque centrifugation, then incubated in complete medium containing 5μg/mL phytohemagglutinin (PHA) (Sigma) and 50 U/mL human recombinant IL-2 for 72 h prior to use for antiviral assays. The laboratory-derived viruses (HIV-1IIIB, HIV-2ROD, HIV-2CBL-20) were obtained from the Medical Research Council (MRC), AIDS Reagent Project (UK) and the NIH AIDS Research and Reference Reagent Program (USA). The clinically isolated HIV-1KM018 was obtained from a naive HIV-1-infected individual in Yunnan Province, China, as described. The 50% HIV-1 tissue culture infectious dose (TCID50) was determined and calculated by the Reed and Muench method. Virus stocks were stored in aliquots at −70 °C.
as §2

C8166 = assay: MTT-based cytotoxicity assay, C8166; format: cell-based; conditions: C8166, MTT
Procedure: as §2

equine anemia virus = test system: equine anemia virus; set-up: method as in PMID 11725078; conditions: cited from earlier work
HIV = test system: HIV; set-up: method as in PMID 11725078; conditions: cited from earlier work
PBMC = assay: MTT-based cytotoxicity assay, PBMC; format: cell-based; conditions: PBMC, MTT
Procedure: as §3, §2

HIV-1 [4] = conditions: freshly infected U937 monocytoid cells; cited from earlier work
HIV-1 [5] = test system: HIV-1; set-up: method as in PMID 9453250; conditions: latently infected T cell clone; cited from earlier work
HIV-1 [6] = test system: HIV-1; set-up: method as in PMID 11424110; conditions: by inducing selective apoptosis of HIV infected cells; cited from earlier work
HIV-1IIIB/H9 = assay: Co-cultivation assay (cell-to-cell fusion C8166 with H9/HIV-1IIIB); format: cell-based
Procedure: Cell-to-cell fusion between normal C8166 cells and H9 cells chronically infected withHIV-1IIIB was quantified under an inverted microscope. First, 3 × 10^4 C8166 cells co-cultured with 1 × 10^4 H9/HIV-1IIIB cells in the presence or absence of the compound at varying concentrations. They were incubated at 37 °C in a humidified atmosphere of 5% CO2. Dextran sulfate (DS) was used as positive control. After 6 h incubation, the number of syncytia was scored under an inverted microscope.

H9/HIV-1IIIB [7] = assay: ELISA in chronically infected H9/HIV-1IIIB cells; format: cell-based; conditions: Human immunodeficiency virus 1
Procedure: Chronically infected cell with HIV-1IIIB (H9/HIV-1IIIB) were washed three times with PBS to remove free virus particle. 200 µL/well (3 × 10^5 cells/mL) of the cell suspension was cultured for three days in a 96-well culture plate with different concentrations of compound. The p24 antigen in the culture supernatants was assayed by ELISA.

[8] = molecular target: T1, HIV-1 reverse transcriptase (Human immunodeficiency virus type 1 group M subtype B, UniProt P04585); assay: Inhibition assay of recombinant HIV-1 RT activity (ELISA); format: biochemical
T1 construct: purchased Roche, Mannheim, Germany
Procedure: HIV-1 reverse transcriptase (RT) activity was measured by the ELISA RT kit using a commercially available kit (Roche, Mannheim, Germany) according to the instructions of the manufacturer. The compounds were incubated with DIG-labeled reaction mixture at 37 °C for 2 h, then anti-DIG-POD solution was added, followed by substrate ABTS. Foscarnet was used as a positive control. The absorbency at 405 nm/490 nm was read on the Bio-Tek ELx 800 ELISA reader.

HIV-1 protease = molecular target: T2, HIV-1 protease (Human immunodeficiency virus type 1 group M subtype B, UniProt P04585); assay: Inhibition assay of recombinant HIV-1 protease activity (fluorescent); format: biochemical
T2 construct: The recombinant HIV-1 protease (PR) was expressed and purified, as previously described; made in house
Procedure: The recombinant HIV-1 protease (PR) was expressed and purified, as previously described. HIV-1 PR was diluted in reaction buffer. The compounds were added and incubated for 30 min at room temperature. Fluorescent substrate DABCYL-γ-Abu-Ser-Gln-Asn-Tyr-Pro-Ile-Val-Gln-EDANS (Anaspec, San Jose, USA) was added to initiate the reaction. The mixture was allowed to react for 90 min and the change of the fluorescent signal was monitored. Negative (double distilled water) and positive (1 μM indinavir) controls were included. The percent inhibition of PR activity was calculated.

HIV-1 integrase = molecular target: T3, HIV-1 integrase (Human immunodeficiency virus type 1 group M subtype B, UniProt P04585); assay: Binding to HIV-1 integrase by SPR (BIAcore)
T3 construct: Integrase was immobilized on the surface of the chip
Procedure: The interaction between the compound and HIV-1 integrase (IN) was determined by SPR using a BIAcore 3000TM biosensor system as previously described. Integrase was immobilized on the surface of the chip. To allow association, various concentrations of the compound diluted in HBS-EP was applied to a chip containing immobilized integrase. Dissociation of the compound from the integrase was monitored in real-time after application of buffer to wash the chip and the kinetic rate constants for dissociation (Kd) was obtained by fitting the real-time data using BIA evaluation software.

[9] = MTT-based cytotoxicity assay, H9/HIV-1IIIB; format: cell-based; conditions: human, H9/HIV-1IIIB cells; H9/HIV-1IIIB, MTT, 3 days
Procedure: as §2

H9/HIV-1IIIB [10] = assay: MTT-based cytotoxicity assay, H9/HIV-1IIIB; format: cell-based; conditions: 3 days of incubation; listed as 7-Hydroxymethyl-CPT
Procedure: as §2

[11] = MTT-based cytotoxicity assay, Jurkat/HIV-1IIIB; format: cell-based; conditions: human, Jurkat/HIV-1IIIB cells
Procedure: as §2

[12] = Human immunodeficiency virus 2, C8166, 72 h
[13] = Human immunodeficiency virus 1, 72 h, C8166, HIV-1IIIB, syncytia, 3 days, read-out: EC50
[14] = Human immunodeficiency virus 2, 72 h, C8166, HIV-2CBL-20, syncytia, 3 days, read-out: EC50
[15] = Human immunodeficiency virus 2, 72 h, C8166, HIV-2ROD, syncytia, 3 days, read-out: EC50
[16] = Human immunodeficiency virus 1, 168 h, PBMC, HIV-1KM018, p24, 7 days, read-out: EC50
[17] = cell-free system, in words, listed as 7-hydroxymethyl-CPT

CC[C@@]1(O)C(=O)OCc2c1cc1n(c2=O)Cc2cc3c(CN(C)C)c(O)ccc3nc2-1 [Topotecan]
treatment of AIDS-related progressive multifocal leukoencephalopathy [1]: efficient

CC[C@@]1(O)C(=O)OCc2c1cc1n(c2=O)Cc2cc3cc(O)ccc3nc2-1 [Compound 2, 10-hydroxycamptothecin]
EC50 (HIV-1IIIB; Human immunodeficiency virus 1, C8166, 72 h): 0.0334 ± 0.0003 µg/mL (≈ 0.0917 µM)
EC50 (HIV-2CBL-20; [12]): 0.0132 ± 0.001 µg/mL (≈ 0.0362 µM)
EC50 (HIV-2ROD; [12]): 0.025 ± 0.0009 µg/mL (≈ 0.0686 µM)
EC50 (HIV-1KM018; Human immunodeficiency virus 1, PBMC, 168 h): 0.0105 ± 0.0004 µg/mL (≈ 0.0288 µM)
CC50 at 3 days ([2]; C8166, MTT, 3 days, read-out: CC50): 0.141 ± 0.0097 µg/mL (≈ 0.387 µM)
CC50 at 3 days ([3]; PBMC, MTT, read-out: CC50): 0.0363 ± 0.0118 µg/mL (≈ 0.0996 µM)

CC[C@@]1(O)C(=O)OCc2c1cc1n(c2=O)Cc2cc3ccccc3nc2-1 [Compound 1, Camptothecin]
EC50 (HIV-1IIIB; [13]): 0.0057 ± 0.0001 µg/mL (≈ 0.0164 µM)
EC50 (HIV-2CBL-20; [14]): 0.004 ± 0.0003 µg/mL (≈ 0.0115 µM)
EC50 (HIV-2ROD; [15]): 0.0067 ± 0.0001 µg/mL (≈ 0.0192 µM)
EC50 (HIV-1KM018; [16]): 0.0074 ± 0.0011 µg/mL (≈ 0.0212 µM)
CC50 at 3 days ([2]; C8166 cells, C8166, MTT, 3 days, read-out: CC50): 0.138 µg/mL (≈ 0.396 µM)
CC50 (C8166; 3 days): 137.8 ± 7.8 ng/mL (≈ 0.396 µM)
CC50 at 3 days ([3]; PBMC (peripheral blood mononuclear cells), PHA-stimulated, PBMC, MTT, read-out: CC50): 0.0759 ± 0.0131 µg/mL (≈ 0.218 µM)
inhibition of replication of equine anemia virus (equine anemia virus): weakly inhibit
inhibition of replication of HIV (HIV): weakly inhibit

Cc1cn([C@H]2C[C@H](N=[N+]=[N-])[C@@H](CO)O2)c(=O)[nH]c1=O [AZT, reference compound]
EC50 (HIV-1IIIB; C8166, HIV-1IIIB, syncytia, 3 days): 0.003 ± 0.0003 µg/mL (≈ 0.0112 µM)
EC50 (HIV-1KM018; PBMC, HIV-1KM018, p24, 7 days): 0.0024 ± 0.0003 µg/mL (≈ 0.00898 µM)
CC50 (C8166): 1.12(mg/ml)
CC50 (PBMC): 0.45(mg/ml

CC[C@@]1(O)C(=O)OCc2c1cc1n(c2=O)Cc2cc3c([N+](=O)[O-])cccc3nc2-1 [9-nitrocamptothecin (9NC), 9-nitrocamptothecin]
inhibition of HIV-1 replication (HIV-1 [4]): showed inhibition
tumor necrosis factor-mediated activation of HIV-1 (HIV-1 [5]): inhibited
HIV-1 replication (HIV-1 [6]): reduced

CC[C@@]1(O)C(=O)OCc2c1cc1n(c2=O)Cc2c-1nc1ccccc1c2CO [Compound 3, 7-Hydroxymethylcamptothecin]
EC50 (HIV-1IIIB; [13]): 0.0008 ± 0.0002 µg/mL (≈ 0.00211 µM)
EC50 (HIV-2CBL-20; [14]): 0.0005 ± 0.0001 µg/mL (≈ 0.00132 µM)
EC50 (HIV-2ROD; [15]): 0.0024 ± 0.0002 µg/mL (≈ 0.00634 µM)
EC50 (HIV-1KM018; [16]): 0.0009 ± 0.0001 µg/mL (≈ 0.00238 µM)
CC50 at 3 days [2]: 0.159 ± 0.0137 µg/mL (≈ 0.419 µM)
CC50 at 3 days [3]: 0.06 ± 0.0101 µg/mL (≈ 0.159 µM)
EC50 (HIV-1IIIB/H9; Human immunodeficiency virus 1, C8166 with HIV-1IIIB/H9, co-cultivation, 6 h): > 2 µg/mL
inhibition of viral cell-to-cell transmission (HIV-1IIIB/H9; in words): no inhibition
EC50 (H9/HIV-1IIIB [7]): > 17 µg/mL
EC50 [8]: > 44.9 µM
inhibition of reverse transcriptase [8, 17]: no inhibition; also recorded: did not show any inhibition
EC50 (HIV-1 protease): > 106 µM
inhibition of protease (HIV-1 protease; [17]): no inhibition; also recorded: did not show any inhibition
Kd (HIV-1 integrase): 64.9 µM
inhibition of integrase (HIV-1 integrase; [17]): no inhibition; also recorded: did not show any inhibition
CC50 at 3 days [9]: 0.0157 µg/mL (≈ 0.0415 µM)
selective killing of chronically infected cells (H9/HIV-1IIIB compared with uninfected H9) (H9/HIV-1IIIB [10]): no selective killing
CC50 at 3 days [11]: 0.041 µg/mL (≈ 0.108 µM)
